Assay type in all cases: in vivo
Experiment [1] is described as follows: Roundtable assessment of mouthfeel (scale 0 to 2). How it is done: For other sweetness attributes, the solutions were tested by a panel of at least four individuals that are highly-trained in tasting steviol glycoside solutions. The highly-trained panelists used a roundtable methodology to assess each sweetness attribute. To test each solution, the highly-trained panelists dispensed approximately 2 mL of each solution into their own mouths by transfer pipet, dispersed the solution by moving their tongues, and recorded a value for the particular sweetness attribute being tested. Between tasting solutions, the panelists were able to cleanse their palates with water. For each sweetness attribute, the panelist agreed on a descriptive scale with relative intensities assigned for each sweetness attribute and then recorded the values for each sweetness attribute against this. For example, this roundtable assessment of sweetness linger assigned a scale of 0 to 6 with a score of 0 indicating no sweetness linger and a score of 6 indicating extreme sweetness linger. Roundtable assessment of sweetness linger assigned a scale of 0 to 6 with a score of 0 indicating no sweetness linger and a score of 6 indicating extreme sweetness linger (0=none, 1=trace, 2=slight, 3=moderate, 4=definite, 5=strong, 6=extreme). Roundtable assessment of rounded assigned a scale of 0 to 3 with a score of 0 indicating spikey and a score of 3 indicating desirable rounded (0=none, 1=mostly spikey, some rounded, 2=mostly rounded, some spikey, 3=rounded). Roundtable assessment of mouthfeel assigned a scale of 0 to 2 with a score of 0 indicating water and a score of 2 indicating syrupy (0=water, 1=sucrosey, 2=syrupy). Roundtable assessment of bitterness assigned a scale of 0 to 6 with a score of 0 indicating no bitterness and a score of 6 indicating extreme sweetness linger (0=none, 1=trace, 2=slight, 3=moderate, 4=definite, 5=strong, 6=extreme). Roundtable assessment of off tastes assigned a scale of 0 to 6 with a score of 0 indicating no bitterness and a score of 6 indicating extreme off tastes (0=none, 1=trace, 2=slight, 3=moderate, 4=definite, 5=strong, 6=extreme).
A series of assays were carried out to characterize a sweetness quality of mouthfeel (0=water, 1=sucrosey, 2=syrupy) of steviol glycoside compositions with sensory modifier compound using the roundtable methodology described in Example 1. […] Solutions of steviol glycosides and sensory modifier compound were prepared at increasing ratios of sensory modifier to steviol glycoside by weight. The steviol glycosides were RebA (4 glycoside groups), RebD (5 glycoside groups), RebM (6 glycoside groups), and OPS1-5(7 glycoside groups) and the sensory modifier compound was monocaffeoylquinic and dicaffeoylquinic acids prepared from yerba mate. The concentration of steviol glycosides was 700 ppm in each solution. […]

Experiment [2] can be described thus: Roundtable assessment of bitterness (scale 0 to 6). The arrangement: key: 0 = none; 1 = trace/faint; 2 = slight; 3 = moderate; 4 = definite; 5 = strong; 6 = extreme.
Experiment [3] can be described thus: Roundtable assessment of off taste (scale 0 to 6). The arrangement: key: 0 = none; 1 = trace/faint; 2 = slight; 3 = moderate; 4 = definite; 5 = strong; 6 = extreme.
A short description of experiment [4]: Overall sweetness quality preference. The arrangement: key: ! = preferred; !! = very preferred; !!! = most preferred. As for the experimental part: A series of assays were carried out to determine overall sweetness quality preference for steviol glycoside with sensory modifier compound. Solutions of steviol glycosides and sensory modifier compound were prepared at varying concentrations of steviol glycoside and sensory modifier compound. The steviol glycoside was RebM and the sensory modifier compound was monocaffeoylquinic and dicaffeoylquinic acids prepared from yerba mate. The concentration of steviol glycosides was between 0 ppm and 1600 ppm. The concentration of sensory modifier compound was between 0 ppm and 1600 ppm. The solutions were tested for overall sweetness quality preference (!=preferred, !!=very preferred, and !!!=most preferred).

[5] abbreviates: RebM 700 ppm + cichoric acid (tartaric backbone) 514 ppm.

Molecules are shown by their SMILES.

`C=C1C[C@@]23CC[C@H]4[C@@](C)(CCC[C@@]4(C)C(=O)O[C@@H]4O[C@H](CO)[C@@H](O)[C@H](O)[C@H]4O[C@@H]4O[C@H](CO)[C@@H](O)[C@H](O)[C@H]4O)[C@@H]2CC[C@]1(O[C@@H]1O[C@H](CO)[C@@H](O)[C@H](O[C@@H]2O[C@H](CO)[C@@H](O)[C@H](O)[C@H]2O)[C@H]1O[C@@H]1O[C@H](CO)[C@@H](O)[C@H](O)[C@H]1O)C3` [RebD, Rebaudioside D]: the Mouthfeel entry in experiment [1] (steviol glycoside 700 ppm + yerba mate mono/dicaffeoylquinic acids 810 ppm) is listed as “Not noted by panel”.

Turning to `C=C1C[C@@]23CC[C@H]4[C@@](C)(CCC[C@@]4(C)C(=O)O[C@@H]4O[C@H](CO)[C@@H](O)[C@H](O[C@@H]5O[C@H](CO)[C@@H](O)[C@H](O)[C@H]5O)[C@H]4O[C@@H]4O[C@H](CO)[C@@H](O)[C@H](O)[C@H]4O)[C@@H]2CC[C@]1(O[C@@H]1O[C@H](CO)[C@@H](O)[C@H](O[C@@H]2O[C@H](CO)[C@@H](O)[C@H](O)[C@H]2O)[C@H]1O[C@@H]1O[C@H](CO)[C@@H](O)[C@H](O)[C@H]1O)C3` [RebM, Rebaudioside M], the Bitterness in experiment [2] (setting [5]) and in experiment [2] (RebM 700 ppm + rosmarinic acid 586 ppm) was 0 throughout. Besides, the Off taste is on record as 0 in experiment [3] (setting [5]), 0 in experiment [3] (RebM 700 ppm + cichoric acid (tartaric backbone) 772 ppm) and 2 in experiment [3] (RebM 700 ppm + rosmarinic acid 391 ppm). The “Sweetness Quality preferred” value is “!!” in experiment [4] (quinic acid backbone modifier 400 ppm, RebM 600 ppm); “!!” in experiment [4] (quinic acid backbone modifier 400 ppm, RebM 700 ppm); “!” in experiment [4] (quinic acid backbone modifier 500 ppm, RebM 600 ppm); “!!!” in experiment [4] (quinic acid backbone modifier 500 ppm, RebM 700 ppm); “!” in experiment [4] (quinic acid backbone modifier 600 ppm, RebM 400 ppm); “!” in experiment [4] (quinic acid backbone modifier 600 ppm, RebM 700 ppm). For the same molecule, the “Sweetness Quality preferred” value in experiment [4] (quinic acid backbone modifier 700 ppm, RebM 800 ppm) is “!!”; in experiment [4] (quinic acid backbone modifier 800 ppm, RebM 400 ppm) it was “!”; in experiment [4] (quinic acid backbone modifier 800 ppm, RebM 600 ppm) it was “!”; in experiment [4] (quinic acid backbone modifier 800 ppm, RebM 700 ppm), “!”.

For `C=C1C[C@@]23CC[C@H]4[C@@](C)(CCC[C@@]4(C)C(=O)O[C@@H]4O[C@H](CO)[C@@H](O)[C@H](O)[C@H]4O)[C@@H]2CC[C@]1(O[C@@H]1O[C@H](CO)[C@@H](O)[C@H](O[C@@H]2O[C@H](CO)[C@@H](O)[C@H](O)[C@H]2O)[C@H]1O[C@@H]1O[C@H](CO)[C@@H](O)[C@H](O)[C@H]1O)C3` [RebA, Rebaudioside A], the Mouthfeel result in experiment [1] (steviol glycoside 700 ppm + yerba mate mono/dicaffeoylquinic acids 630 ppm), in experiment [1] (steviol glycoside 700 ppm + yerba mate mono/dicaffeoylquinic acids 946 ppm) and in experiment [1] (steviol glycoside 700 ppm + yerba mate mono/dicaffeoylquinic acids […]) was “Not noted by panel” in each case.

The record behind these values is patent US20190223483A1, “SENSORY MODIFIER COMPOUNDS” (CARGILL, INCORPORATED, priority 2017, published 2019).
